Assay results: patent US12384789B2, “Compounds for treating Huntington's disease” (PTC Therapeutics, Inc., priority 2017, dated 2025)

Tested on: Endogenous Huntingtin Protein
Assay: Endogenous Huntingtin Protein Assay (Meso Scale Discovery ELISA-based electrochemiluminescence)
Type: cell-based
Conditions: MSD electrochemiluminescence, Table 1
Protocol: Compounds of Formula (I) were tested using the Meso Scale Discovery (MSD) Assay provided in International Application No. PCT/US2016/066042, filed on Dec. 11, 2016 and claiming priority to United States Provisional Application U.S. 62/265,652 filed on Dec. 10, 2015, the entire contents of which are incorporated herein by reference.
The Endogenous Huntingtin Protein assay used in Example 1 was developed using the ELISA-based MSD electrochemiluminescence assay platform.
Endogenous Huntingtin Protein Assay
Meso Scale Discovery (MSD) 96-well or 384-well plates were coated overnight at 4° C. with MW1 (expanded polyglutamine) or MAB2166 monoclonal antibody (for capture) at a concentration of 1 μg/mL in PBS (30 μL per well). Plates were then washed three times with 300 μL wash buffer (0.05% Tween-20 in PBS) and blocked (100 μL blocking buffer; 5% BSA in PBS) for 4-5 hours at room temperature with rotational shaking and then washed three times with wash buffer.
Samples (25 μL) were transferred to the antibody-coated MSD plate and incubated overnight at 4° C. After removal of the lysates, the plate was washed three times with wash buffer, and 25 μL of #5656S (Cell signaling; rabbit monoclonal) secondary antibody (diluted to 0.25 μg/mL in 0.05% Tween-20 in blocking buffer) was added to each well and incubated with shaking for 1 Hour at room temperature. Following incubation with the secondary antibody, the wells were rinsed with wash buffer after which 25 μL of goat anti-rabbit SULFO TAG secondary detection antibody (required aspect of the MSD system) (diluted to 0.25 μg/mL in 0.05% Tween-20 in blocking buffer) was added to each well and incubated with shaking for 1 hour at room temperature. After rinsing three times with wash buffer, 150 μL of read buffer T with surfactant (MSD) were added to each empty well, and the plate was imaged on a SI 6000 imager (MSD) according to manufacturers' instructions provided for 96- or 384-well plates.

Row | IC50 [nM] | SMILES
1 | 1000 to 3000 | Cn1cc2cc(-c3ccc4cc(C5CCNCC5)ccc4n3)ccc2n1 [Compound 1, 2-(2-methyl-2H-indazol-5-yl)-6-(piperidin-4-yl)quinoline]
2 | 1000 to 3000 | CCN1CCC(c2ccc3nc(-c4ccc5nn(C)cc5c4)ccc3c2)CC1 [Compound 2, 6-(1-ethylpiperidin-4-yl)-2-(2-methyl-2H-indazol-5-yl)quinoline]
3 | 100 to 500 | Cn1cc2cc(-c3ccc4nc(C5CCNCC5)ccc4c3)ccc2n1 [Compound 3, 6-(2-methyl-2H-indazol-5-yl)-2-(piperidin-4-yl)quinolone]
4 | 1000 to 3000 | Cc1cc(C2CCNCC2)nc2ccc(-c3ccc4nn(C)cc4c3)cc12 [Compound 5, 4-methyl-6-(2-methyl-2H-indazol-5-yl)-2-(piperidin-4-yl)quinoline]
5 | 500 to 1000 | CN1CCC(c2ccc3cc(-c4ccc5nn(C)cc5c4)ccc3n2)CC1 [Compound 6, 6-(2-methyl-2H-indazo1-5-yl)-2-(1-methylpiperidin-4-yl)quinoline]
6 | 1000 to 3000 | Cn1cc2cc(-c3ccc4cc(N5CCNCC5)ccc4n3)ccc2n1 [Compound 7, 2-(2-methyl-2H-indazol-5-yl)-6-(piperazin-1-yl)quinoline]
7 | 1000 to 3000 | CCN1CCC(c2ccc3cc(-c4ccc5nn(C)cc5c4)ccc3n2)CC1 [Compound 9, 2-(1-ethylpiperidin-4-yl)-6-(2-methyl-2H-indazol-5-yl)quinoline]
8 | 100 to 500 | Cn1cc2cc(-c3ncc4cc(C5CCNCC5)ccc4n3)ccc2n1 [Compound 10, 2-(2-methyl-2H-indazol-5-yl)-6-(piperidin-4-yl)quinazoline]
9 | 1000 to 3000 | Cc1cc(-c2ccc3nc(C4=CC(C)(C)NC(C)(C)C4)ccc3c2)cc2cn(C)nc12 [Compound 13, 6-(2,7-dimethyl-2H-indazol-5-yl)-2-(2,2,6,6-tetramethyl-1,2,3,6-tetrahydropyridin-4-yl)quinoline]
10 | 100 to 500 | Cc1cc(-c2ccc3nc(C4CC(C)(C)NC(C)(C)C4)ccc3c2)cc2cn(C)nc12 [Compound 14, 6-(2,7-dimethyl-2H-indazol-5-yl)-2-(2,2,6,6-tetramethylpiperidin-4-yl)quinoline]
11 | ≤ 100 | Cc1cc(-c2ccc3nc(C4CCNCC4)ccc3c2)cc2cn(C)nc12 [Compound 15, 6-(2,7-dimethyl-2H-indazol-5-yl)-2-(piperidin-4-yl)quinoline]
12 | 100 to 500 | Cc1cc(-c2ccc3nc(C4CCNCC4)nnc3c2)cc2cn(C)nc12 [Compound 16, 7-(2,7-dimethyl-2H-indazol-5-yl)-3-(piperidin-4-yl)-1,2,4-benzotriazine]
13 | ≤ 100 | Cc1cc(-c2nnc3cc(C4CCNCC4)ccc3n2)cc2cn(C)nc12 [Compound 17, 3-(2,7-dimethyl-2H-indazol-5-yl)-7-(piperidin-4-yl)-1,2,4-benzotriazine]
14 | 100 to 500 | Cc1cn2cc(-c3ccc4nc(C5CCNCC5)ccc4c3)nc(C)c2n1 [Compound 18, 6-(2,8-dimethylimidazo[1,2-a]pyrazin-6-yl)-2-(piperidin-4-yl)quinoline]
15 | ≤ 100 | Cc1cn2nc(-c3ccc4nc(C5CCNCC5)ccc4c3)cc(C)c2n1 [Compound 19, 6-(2,8-dimethylimidazo[1,2-b]pyridazin-6-yl)-2-(piperidin-4-yl)quinoline]
16 | ≤ 100 | Cc1cc(-c2cc(F)c3nc(C4CCNCC4)ccc3c2)cc2cn(C)nc12 [Compound 20, 6-(2,7-dimethyl-2H-indazol-5-yl)-8-fluoro-2-(piperidin-4-yl)quinoline]
17 | 100 to 500 | Cc1cc(-c2ccc3nc(C4CCNCC4)ncc3c2)cc2cn(C)nc12 [Compound 23, 6-(2,7-dimethyl-2H-indazol-5-yl)-2-(piperidin-4-yl)quinazoline]
18 | 100 to 500 | Cn1cc2cc(-c3ccc4nc(C5CCNCC5)cnc4c3)cc(C(F)(F)F)c2n1 [Compound 24, 6-[2-methyl-7-(trifluoromethyl)-2H-indazol-5-yl]-2-(piperidin-4-yl)quinoxaline]
19 | ≤ 100 | Cn1cc2cc(-c3nnc4cc(C5CCNCC5)ccc4n3)cc(F)c2n1 [Compound 25, 3-(7-fluoro-2-methyl-2H-indazol-5-yl)-7-(piperidin-4-yl)-1,2,4-benzotriazine]
20 | ≤ 100 | Cn1cc2cc(-c3nnc4cc(C5CCNCC5)ccc4n3)cc(C#N)c2n1 [Compound 26, 2-methyl-5-[7-(piperidin-4-yl)-1,2,4-benzotriazin-3-yl]-2H-indazole-7-carbonitrile]
21 | 100 to 500 | Cc1cn2cc(-c3nnc4cc(C5CCNCC5)ccc4n3)cc(C)c2n1 [Compound 27, 3-(2,8-dimethylimidazo[1,2-a]pyridin-6-yl)-7-(piperidin-4-yl)-1,2,4-benzotriazine]
22 | 1000 to 3000 | Cc1cn2cc(-c3nnc4cc(C5CCNCC5)ccc4n3)cc2c(C)n1 [Compound 28, 3-(1,3-dimethylpyrrolo[1,2-a]pyrazin-7-yl)-7-(piperidin-4-yl)-1,2,4-benzotriazine]
23 | 1000 to 3000 | Cc1cc(-c2cnc3cc(C4CCNCC4)ccc3c2)cc2cn(C)nc12 [Compound 29, 3-(2,7-dimethyl-2H-indazol-5-yl)-7-(piperidin-4-yl)quinoline]
24 | 100 to 500 | Cc1cc(-c2ccc3cc(C4CCNCC4)ncc3c2)cc2cn(C)nc12 [Compound 30, 7-(2,7-dimethyl-2H-indazol-5-yl)-3-(piperidin-4-yl)isoquinoline]
25 | 100 to 500 | Cc1cc(-c2ccc3nc(C4CCNCC4)cnc3c2)cc2cn(C)nc12 [Compound 31, 6-(2,7-dimethyl-2H-indazol-5-yl)-2-(piperidin-4-yl)quinoxaline]
26 | ≤ 100 | Cn1cc2cc(-c3cc(F)c4nc(C5CCNCC5)nnc4c3)cc(F)c2n1 [Compound 32, 5-fluoro-7-(7-fluoro-2-methyl-2H-indazol-5-yl)-3-(piperidin-4-yl)-1,2,4-benzotriazine]
27 | ≤ 100 | Cc1cc(-c2cc(F)c3nc(C4CCNCC4)nnc3c2)cc2cn(C)nc12 [Compound 33, 7-(2,7-dimethyl-2H-indazol-5-yl)-5-fluoro-3-(piperidin-4-yl)-1,2,4-benzotriazine]
28 | ≤ 100 | Cc1cc(-c2cc(F)c3nc(C4CCNCC4)ncc3c2)cc2cn(C)nc12 [Compound 34, 6-(2,7-dimethyl-2H-indazol-5-yl)-8-fluoro-2-(piperidin-4-yl)quinazoline]
29 | ≤ 100 | Cn1cc2cc(-c3cc(F)c4nc(C5CCNCC5)ncc4c3)cc(C#N)c2n1 [Compound 35, 5-[8-fluoro-2-(piperidin-4-yl)quinazolin-6-yl]-2-methyl-2H-indazole-7-carbonitrile]

Row | SMILES | IC50 [nM]
30 | Cn1cc2cc(-c3cc4ccc(C5=CCNCC5)cc4nn3)ccc2n1 [Compound 4, 3-(2-methyl-2H-indazol-5-yl)-7-(1,2,3,6-tetrahydropyridin-4-yl)cinnoline] | 500 to 1000
31 | Cc1cc(-c2ccc3nc(N(C)C4CC(C)(C)NC(C)(C)C4)ccc3c2)cc2cn(C)nc12 [Compound 11, 6-(2,7-dimethyl-2H-indazol-5-yl)-N-methyl-N-(2,2,6,6-tetramethylpiperidin-4-yl)quinolin-2-amine] | 1000 to 3000
32 | CN(c1ccc2cc(-c3ccc4nn(C)cc4c3)ccc2n1)C1CC(C)(C)NC(C)(C)C1 [Compound 12, N-methyl-6-(2-methyl-2H-indazol-5-yl)-N-(2,2,6,6-tetramethylpiperidin-4-yl)quinolin-2-amine] | 500 to 1000
